Laboratory results from ChEMBL document CHEMBL1129601, “Inhibitors of acyl-CoA: cholesterol O-acyl transferase (ACAT) as hypocholesterolemic agents. CI-1011: an acyl sulfamate with unique cholesterol-lowering activity in animals fed noncholesterol-supplemented diets” (J Med Chem, 1996).

How the values were obtained:
Format in all cases: ADME
[1] = Solution Degradation Studies measured by compound unchanged at pH 0.4=50% 1 M HCl/50% acetonitrile at 0 hours; details: 50% 1 M HCl / 50% acetonitrile solution, read-out: Unchanged
[2] = Solution Degradation Studies measured by compound unchanged at pH 0.4=50% 1 M HCl/50% acetonitrile at 24 hours; details: 50% 1 M HCl / 50% acetonitrile solution, read-out: Unchanged
[3] = Solution Degradation Studies measured by compound unchanged at pH 0.4=50% 1 M HCl/50% acetonitrile at 4 hours; details: 50% 1 M HCl / 50% acetonitrile solution, read-out: Unchanged
[4] = Solution Degradation Studies measured by compound unchanged at pH 0.4=50% 1 M HCl/50% acetonitrile at 8 hours; details: 50% 1 M HCl / 50% acetonitrile solution, read-out: Unchanged
[5] = Solution Degradation Studies measured by compound unchanged at pH 6.4 = 50% water / 50% acetonitrile at 0 hours; details: 50% water / 50% acetonitrile solution, read-out: Unchanged
[6] = Solution Degradation Studies measured by compound unchanged at pH 6.4 = 50% water / 50% acetonitrile at 2 hours; details: 50% water / 50% acetonitrile solution, read-out: Unchanged
[7] = Solution Degradation Studies measured by compound unchanged at pH 6.4 = 50% water / 50% acetonitrile at 24 hours; details: 50% water / 50% acetonitrile solution, read-out: Unchanged
[8] = Solution Degradation Studies measured by compound unchanged at pH 6.4 = 50% water / 50% acetonitrile at 4 hours; details: 50% water / 50% acetonitrile solution, read-out: Unchanged
[9] = Solution Degradation Studies measured by compound unchanged at pH 6.4 = 50% water / 50% acetonitrile at 8 hours; details: 50% water / 50% acetonitrile solution, read-out: Unchanged
[10] = Solution Degradation Studies measured by compound unchanged at pH 0.4=50% 1 M HCl/50% acetonitrile at 2 hours; details: 50% 1 M HCl / 50% acetonitrile solution, read-out: Unchanged
[11] = Solution Degradation Studies measured by compound unchanged at pH 0.4=50%1 M HCl/50% acetonitrile at 0 hours; details: 50% 1 M HCl / 50% acetonitrile solution, read-out: Unchanged
[12] = Solution Degradation Studies measured by compound unchanged at pH 0.4=50%1 M HCl/50% acetonitrile at 2 hours; details: 50% 1 M HCl / 50% acetonitrile solution, read-out: Unchanged
[13] = Solution Degradation Studies measured by compound unchanged at pH 0.4=50%1 M HCl/50% acetonitrile at 24 hours; details: 50% 1 M HCl / 50% acetonitrile solution, read-out: Unchanged
[14] = Solution Degradation Studies measured by compound unchanged at pH 0.4=50%1 M HCl/50% acetonitrile at 4 hours; details: 50% 1 M HCl / 50% acetonitrile solution, read-out: Unchanged
[15] = Solution Degradation Studies measured by compound unchanged at pH 0.4=50%1 M HCl/50% acetonitrile at 8 hours; details: 50% 1 M HCl / 50% acetonitrile solution, read-out: Unchanged

Row | SMILES | remaining at 0 h [1] [%] | remaining at 24 h [2] [%] | remaining at 4 h [3] [%] | remaining at 8 h [4] [%] | remaining at 0 h [5] [%] | remaining at 2 h [6] [%] | remaining at 24 h [7] [%] | remaining at 4 h [8] [%] | remaining at 8 h [9] [%] | remaining at 2 h [10] [%] | remaining at 0 h [11] [%] | remaining at 2 h [12] [%] | remaining at 24 h [13] [%] | remaining at 4 h [14] [%] | remaining at 8 h [15] [%]
1 | CC(C)c1cccc(C(C)C)c1OC(=O)NS(=O)(=O)Oc1c(C(C)C)cccc1C(C)C [listing 1 of 2 here] | 95 | 23 | 80 | 66 | 95 | 87 | 37 | 85 | 74 | 88 |  |  |  |  | 
2 | Cc1cccc(C)c1OC(=O)NS(=O)(=O)Oc1c(C(C)C)cccc1C(C)C | 93 | 5 | 57 | 37 | 94 | 79 | 20 | 65 | 48 | 71 |  |  |  |  | 
3 | CC(C)c1cccc(C(C)C)c1OS(=O)(=O)NC(=O)Oc1c(C(C)(C)C)cccc1C(C)(C)C | 100 | 97 | 99 | 98 | 100 | 100 | 98 | 99 | 99 | 100 |  |  |  |  | 
4 | CC(C)c1cccc(C(C)C)c1OC(=O)NS(=O)(=O)Oc1c(C(C)C)cccc1C(C)C [listing 2 of 2 here] |  |  |  |  | 100 | 100 | 100 | 100 | 100 |  | 100 | 92 | 25 | 83 | 68
